In article PMC2866494 (Phytochemistry, 2010) one finds inhibition and IC50 data, which are given here for 2 compounds.

The target in one experiment is T1, COX-1 (Ovis aries, UniProt P05979).
T1 sequence (P05979 25-600): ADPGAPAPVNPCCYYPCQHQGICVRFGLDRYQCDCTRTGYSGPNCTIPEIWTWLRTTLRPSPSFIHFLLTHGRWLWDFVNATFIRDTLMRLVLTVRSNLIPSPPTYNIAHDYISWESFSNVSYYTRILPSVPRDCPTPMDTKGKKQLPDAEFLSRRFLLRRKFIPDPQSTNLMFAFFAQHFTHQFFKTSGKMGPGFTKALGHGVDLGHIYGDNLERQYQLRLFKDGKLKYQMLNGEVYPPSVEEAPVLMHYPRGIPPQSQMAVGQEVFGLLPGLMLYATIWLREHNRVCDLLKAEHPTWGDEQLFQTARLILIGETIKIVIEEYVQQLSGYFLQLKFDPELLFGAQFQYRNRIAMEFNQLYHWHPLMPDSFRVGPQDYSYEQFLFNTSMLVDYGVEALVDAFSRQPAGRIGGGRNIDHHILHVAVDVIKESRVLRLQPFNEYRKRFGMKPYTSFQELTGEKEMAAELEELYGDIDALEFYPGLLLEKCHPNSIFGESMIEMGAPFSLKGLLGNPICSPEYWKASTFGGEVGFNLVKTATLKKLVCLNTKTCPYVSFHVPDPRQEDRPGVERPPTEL
As to the kind of experiment: COX-1 enzyme assay, PGE2 by LC-MS-MS, single point. Particulars: read-out: CX1 ^f. It counts as biochemical.

A further experiment has as its target T2, aromatase (CYP19) (Homo sapiens, UniProt P11511).
T2 sequence (P11511 1-503): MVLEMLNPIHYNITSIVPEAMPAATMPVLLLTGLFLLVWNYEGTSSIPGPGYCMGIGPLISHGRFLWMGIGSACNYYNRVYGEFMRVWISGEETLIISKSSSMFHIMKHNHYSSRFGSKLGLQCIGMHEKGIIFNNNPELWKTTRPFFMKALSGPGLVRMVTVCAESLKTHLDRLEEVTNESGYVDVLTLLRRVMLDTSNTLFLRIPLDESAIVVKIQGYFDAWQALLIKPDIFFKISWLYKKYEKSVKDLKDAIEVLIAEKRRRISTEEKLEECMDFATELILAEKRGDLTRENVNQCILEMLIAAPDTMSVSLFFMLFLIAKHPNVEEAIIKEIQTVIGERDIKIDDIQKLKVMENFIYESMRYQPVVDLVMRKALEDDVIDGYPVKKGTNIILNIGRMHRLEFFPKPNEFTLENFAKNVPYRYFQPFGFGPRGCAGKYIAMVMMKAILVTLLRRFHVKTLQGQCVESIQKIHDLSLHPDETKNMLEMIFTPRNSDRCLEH
As to the kind of experiment: CYP19 enzyme, dibenzylfluorescein fluorescence assay. It counts as biochemical.

As for `CC(=O)OC[C@H]1OC(O[C@@H]2[C@@H](OCCC(=O)C(C)C)[C@@H](O)[C@H](Oc3c(-c4ccc(O)cc4)oc4cc(O)cc(O)c4c3=O)O[C@H]2C)[C@H](O)[C@@H](O)[C@@H]1O` (stereo partly drawn) [compound 1, kaempferol 3-O-[(6‴-O-acetyl-β-D-glucopyranosyl)-(1→4)-3″-O-(4⁗, 4⁗-dimethyl-3-oxo-butyl)-α-L-rhamnopyranoside]], at COX-1, the inhibition at 10 µg/mL came to 52%.

Broadly, the IC50 is the concentration needed to halve the response being measured. The low end stands for greater potency in that assay, the high end for weaker potency in that assay. `CC(=O)OC[C@H]1O[C@@H](O[C@@H]2[C@@H](O)[C@@H](O)[C@H](Oc3c(-c4ccc(O)cc4)oc4cc(O)cc(O)c4c3=O)O[C@H]2C)[C@H](O)[C@@H](O)[C@@H]1O` [compound 4, multiflorin A] came in with an IC50 on aromatase (CYP19) of 15.5 µM. This counts as double-digit micromolar.
